In the CheMixHub viscosity set:
Where “and” joins values, the source holds several entries; their conditions need not be identical. Identical values can stand only once.

Test: xn = mol fraction of the nth substance listed

CCCCCCCCCCN + C1CCCCC1
303.15 K, 101 kPa
Conditions | viscosity [mPa·s]
x2 = 0.2056 | 1.562
x2 = 0.3987 | 1.361
x2 = 0.5065 | 1.239
x2 = 0.5875 | 1.159
x2 = 0.7947 | 0.9708

[Br-].[K+] + O
Conditions | viscosity
293.15 K, 101.3 kPa, x1 = 0.0009 | 0.9993 mPa·s
293.15 K, 101.3 kPa, x1 = 0.0018 | 0.9961 mPa·s
293.15 K, 101.3 kPa, x1 = 0.00893 | 0.9721 mPa·s
293.15 K, 101.3 kPa, x1 = 0.03478 | 0.9229 mPa·s
293.15 K, 101.3 kPa, x1 = 0.05127 | 0.9162 mPa·s
293.15 K, 101.3 kPa, x1 = 0.06722 | 0.9253 mPa·s
298.15 K, 100 kPa, x1 = 0.002229 | 0.8854 mPa·s
298.15 K, 100 kPa, x1 = 0.004266 | 0.8805 mPa·s
298.15 K, 100 kPa, x1 = 0.008299 | 0.8743 mPa·s
298.15 K, 100 kPa, x1 = 0.03864 | 0.8498 mPa·s
298.15 K, 101.3 kPa, x1 = 0.0009 | 0.8884 mPa·s and 0.8888 mPa·s
298.15 K, 101.3 kPa, x1 = 0.001798 | 0.8873 mPa·s
298.15 K, 101.3 kPa, x1 = 0.0018 | 0.8862 mPa·s
298.15 K, 101.3 kPa, x1 = 0.00359 | 0.8842 mPa·s
298.15 K, 101.3 kPa, x1 = 0.005732 | 0.8803 mPa·s
298.15 K, 101.3 kPa, x1 = 0.008927 | 0.8746 mPa·s
298.15 K, 101.3 kPa, x1 = 0.00893 | 0.8692 mPa·s
298.15 K, 101.3 kPa, x1 = 0.01421 | 0.8666 mPa·s
298.15 K, 101.3 kPa, x1 = 0.0177 | 0.8529 mPa·s
298.15 K, 101.3 kPa, x1 = 0.02116 | 0.8588 mPa·s
298.15 K, 101.3 kPa, x1 = 0.03478 | 0.8352 mPa·s
298.15 K, 101.3 kPa, x1 = 0.05127 | 0.8342 mPa·s
303.15 K, 101.3 kPa, x1 = 0.0009 | 0.7962 mPa·s
303.15 K, 101.3 kPa, x1 = 0.0018 | 0.7947 mPa·s
303.15 K, 101.3 kPa, x1 = 0.00893 | 0.7827 mPa·s
303.15 K, 101.3 kPa, x1 = 0.03478 | 0.7609 mPa·s
303.15 K, 101.3 kPa, x1 = 0.05127 | 0.7639 mPa·s
303.15 K, 101.3 kPa, x1 = 0.06722 | 0.7781 mPa·s
308.15 K, 101.3 kPa, x1 = 0.0009 | 0.7187 mPa·s and 0.7188 mPa·s
308.15 K, 101.3 kPa, x1 = 0.001798 | 0.7187 mPa·s
308.15 K, 101.3 kPa, x1 = 0.0018 | 0.7177 mPa·s
308.15 K, 101.3 kPa, x1 = 0.00359 | 0.7178 mPa·s
308.15 K, 101.3 kPa, x1 = 0.005732 | 0.7165 mPa·s
308.15 K, 101.3 kPa, x1 = 0.008927 | 0.7145 mPa·s
308.15 K, 101.3 kPa, x1 = 0.00893 | 0.7095 mPa·s
308.15 K, 101.3 kPa, x1 = 0.01421 | 0.7121 mPa·s
308.15 K, 101.3 kPa, x1 = 0.0177 | 0.7021 mPa·s
308.15 K, 101.3 kPa, x1 = 0.02116 | 0.7104 mPa·s
308.15 K, 101.3 kPa, x1 = 0.03478 | 0.6969 mPa·s
308.15 K, 101.3 kPa, x1 = 0.05127 | 0.7029 mPa·s
308.15 K, 101.3 kPa, x1 = 0.06722 | 0.7189 mPa·s
312.45 K, 100 kPa, x1 = 0.002229 | 0.661 mPa·s
312.85 K, 100 kPa, x1 = 0.01672 | 0.6499 mPa·s
313.55 K, 100 kPa, x1 = 0.03864 | 0.6449 mPa·s
313.85 K, 100 kPa, x1 = 0.004266 | 0.6426 mPa·s
313.95 K, 100 kPa, x1 = 0.008299 | 0.6399 mPa·s
318.15 K, 101.3 kPa, x1 = 0.0009 | 0.5963 mPa·s and 0.5961 mPa·s
318.15 K, 101.3 kPa, x1 = 0.001798 | 0.5966 mPa·s
318.15 K, 101.3 kPa, x1 = 0.0018 | 0.596 mPa·s
318.15 K, 101.3 kPa, x1 = 0.00359 | 0.5969 mPa·s
318.15 K, 101.3 kPa, x1 = 0.005732 | 0.5913 mPa·s
318.15 K, 101.3 kPa, x1 = 0.008927 | 0.5975 mPa·s
318.15 K, 101.3 kPa, x1 = 0.00893 | 0.5928 mPa·s
318.15 K, 101.3 kPa, x1 = 0.01421 | 0.5983 mPa·s
318.15 K, 101.3 kPa, x1 = 0.0177 | 0.5908 mPa·s
318.15 K, 101.3 kPa, x1 = 0.02116 | 0.5998 mPa·s
318.15 K, 101.3 kPa, x1 = 0.03478 | 0.593 mPa·s
318.15 K, 101.3 kPa, x1 = 0.05127 | 0.6036 mPa·s
318.15 K, 101.3 kPa, x1 = 0.06722 | 0.6221 mPa·s
321.85 K, 100 kPa, x1 = 0.002229 | 0.5597 mPa·s
322.75 K, 100 kPa, x1 = 0.01672 | 0.5528 mPa·s
322.95 K, 100 kPa, x1 = 0.004266 | 0.552 mPa·s

CCOC(=O)CC(=O)OCC + CCC(=O)CC
viscosity [mPa·s], 101 kPa
Conditions | x1 = 0.0736 | x1 = 0.1356 | x1 = 0.2458 | x1 = 0.3326 | x1 = 0.4124 | x1 = 0.5158 | x1 = 0.6256 | x1 = 0.7456 | x1 = 0.8626 | x1 = 0.9415
303.15 K | 0.488 | 0.535 | 0.633 | 0.725 | 0.814 | 0.94 | 1.094 | 1.273 | 1.475 | 1.627
308.15 K | 0.45 | 0.493 | 0.58 | 0.658 | 0.742 | 0.859 | 0.999 | 1.162 | 1.341 | 1.478
313.15 K | 0.437 | 0.477 | 0.56 | 0.633 | 0.708 | 0.812 | 0.938 | 1.089 | 1.25 | 1.375

Cc1ccc(C(C)C)c(O)c1 + CCCCCCCCCCCC(=O)O
100 kPa, x2 = 0.45
Conditions | viscosity [mPa·s]
303.15 K | 12.43
308.15 K | 10.12
313.15 K | 8.37
318.15 K | 7.01
323.15 K | 5.95

CCN(CC)c1ccccc1 + O=S1(=O)CCCC1
viscosity [mPa·s], 101 kPa
Conditions | x1 = 0.0999 | x1 = 0.2008 | x1 = 0.2993 | x1 = 0.4001 | x1 = 0.5001 | x1 = 0.6027 | x1 = 0.7023 | x1 = 0.7999 | x1 = 0.8991
303.15 K | 8.19 | 6.62 | 5.41 | 4.44 | 3.7 | 3.09 | 2.63 | 2.26 | 1.96
308.15 K | 7.26 | 5.88 | 4.81 | 3.96 | 3.3 | 2.77 | 2.36 | 2.04 | 1.77
313.15 K | 6.45 | 5.25 | 4.31 | 3.54 | 2.96 | 2.49 | 2.13 | 1.84 | 1.6

ClCCCCl + CCC(C)O
viscosity [mPa·s], 101 kPa
Conditions | x1 = 0.1002 | x1 = 0.2005 | x1 = 0.3002 | x1 = 0.4005 | x1 = 0.4986 | x1 = 0.6027 | x1 = 0.6951 | x1 = 0.8051 | x1 = 0.9113
298.15 K | 2.23 | 1.683 | 1.346 | 1.134 | 1.031 | 0.9587 | 0.9141 | 0.894 | 0.8997
313.15 K | 1.369 | 1.103 | 0.9402 | 0.8403 | 0.7841 | 0.7468 | 0.7254 | 0.7214 | 0.7371
